Experimental data published in patent US6365578B1, “Drug cominbations containing AZT” (Roger Williams General Hospital, priority 1990, dated 2002).
Like-named read-outs stand apart in the source and are kept apart here.

What was measured:
mice = assay: LD10 of MTX in mice; assay type: in vivo; conditions: weekly
[1] = system: Balb/C female athymic (nude) mice; conditions: 4 courses
Experimental: In vivo tests to assess the toxicity of various dosages of AZT and FUra were carried out on Balb/C female athymic (nude) mice.
(§1) The mice were divided into groups of 5-8 animals each and treated with different doses and schedules of FUra, AZT, or both in combination. FUra and AZT were dissolved in normal saline immediately before use and were administered by intraperitoneal bolus injection so that the desired dose was contained in 0.1 ml/10 g animal body weight. FUra was administered in doses corresponding to 80, 90 and 100 mg/kg weekly or 20, 25, and 30 mg/kg for 5 consecutive days with intervening 2 week rest periods. The AZT component was administered at doses of 300 or 600 mg/kg. In those cases where the two components were not administered simultaneously, the FUra component was administered first followed in approximately 2 hours with the AZT component. Toxicity was assessed by determination of mortality, changes in body weight, and changes in white blood cell counts (WBC). Animal body weights were recorded immediately before and twice weekly after initiation of treatment and weight change was calculated as a percentage of the initial body weight. To determine WBC, blood was collected from the orbital sinus in a heparinized Natelson pipette, and after appropriate dilution the cell number was determined electronically one week after each course of therapy. The tests were carried out in duplicate and the pooled number of animals per treatment group was 10-16.
In the control group the mice received no treatment; in group 2 they received 600 mg/kg of AZT; in group 3 they received 85 mg/kg of FUra; in group 4 they received 85 mg/kg of FUra followed at a 2 hour interval by 600 mg/kg of AZT; in group 5 the mice received 100 mg/kg of FUra alone. A total of 4 courses of administration were carried out, each in triplicate, and the pooled number of animals per treatment group corresponded to 23-30.

[2] = system: Balb/C female athymic (nude) mice; conditions: 2 courses
Experimental: as §1
A second series of toxicity tests were carried out using a different regimen with similar groups of animals as follows:
Group 1 was treated with 600 mg/kg of AZT for days 3 to 5 inclusive; Group 2 was treated with 20 mg/kg of FUra from days 1 to 5; Group 3 was treated with 20 mg/kg of FUra for days 1 to 5 and with 600 mg/kg of AZT for days 3 to 5; Group 4 was treated with 25 mg/kg of FUra for days 1 to 5. The medication was administered by intraperitoneal bolus, the AZT being administered two hours after FUra. The treatment was repeated every two weeks. A total of 2 courses were administered, the tests being carried out in triplicate and the pool number of animals per treatment group corresponded to 21-30.

SMILES: CN(Cc1cnc2nc(N)nc(N)c2n1)c1ccc(C(=O)N[C@@H](CCC(=O)O)C(=O)O)cc1 [MTX, methotrexate]
- LD10 (mice): 87.5 mg/kg/wk

SMILES: Cc1cn([C@H]2C[C@H](N=[N+]=[N-])[C@@H](CO)O2)c(=O)[nH]c1=O [AZT, 3′-azido-3′-deoxythymidine]
- Mortality (percent dead on day 29 after starting treatment) ([1]; AZT 600 mg/kg i.p.): 0%
- Mortality (percent dead on day 29 after starting treatment) ([2]; AZT 600 mg/kg i.p. days 3 to 5, repeated every two weeks): 0%

SMILES: O=c1[nH]cc(F)c(=O)[nH]1 [FUra, 5-fluorouracil]
- Mortality (percent dead on day 29 after starting treatment) ([1]; FUra 85 mg/kg i.p.): 25%
- Mortality (percent dead on day 29 after starting treatment) ([1]; FUra 100 mg/kg i.p.): 60.8%
- Mortality (percent dead on day 29 after starting treatment) ([2]; FUra 20 mg/kg i.p. days 1 to 5, repeated every two weeks): 0%
- Mortality (percent dead on day 29 after starting treatment) ([2]; FUra 25 mg/kg i.p. days 1 to 5, repeated every two weeks): 12.5%
